# In ChEMBL document CHEMBL4420076, “Amylin and calcitonin receptor agonist” (2017):
# Numbered stars: 1 amine (or outer) side, 2 acyl side, 3 side chain; on linkers, the order of the positions; unused ones are H or OH. Peptide text beside a SMILES is read from it. * marks the point of attachment. C20 diacid = O=C(O)CCCCCCCCCCCCCCCCCCC(=O)*; C18 diacid = O=C(O)CCCCCCCCCCCCCCCCC(=O)*; γGlu = O=C(O)[C@H](CCC(=O)[*:2])N[*:1]; C14 diacid = O=C(O)CCCCCCCCCCCCC(=O)*
# Columns and labels:
# [1] = biological target: T1, Amylin receptor AMY3; CALCR/RAMP3 (Homo sapiens, UniProt O60896+P30988); assay: Agonist activity at human amylin receptor expressed in BHK570 cells co-expressing RAMP3 assessed as increase in intracellular cAMP concentration incubated for 3 hrs in absence of albumin by CRE luciferase reporter gene assay; format: functional, cell-based
# T1 sequence (P30988 whole entry): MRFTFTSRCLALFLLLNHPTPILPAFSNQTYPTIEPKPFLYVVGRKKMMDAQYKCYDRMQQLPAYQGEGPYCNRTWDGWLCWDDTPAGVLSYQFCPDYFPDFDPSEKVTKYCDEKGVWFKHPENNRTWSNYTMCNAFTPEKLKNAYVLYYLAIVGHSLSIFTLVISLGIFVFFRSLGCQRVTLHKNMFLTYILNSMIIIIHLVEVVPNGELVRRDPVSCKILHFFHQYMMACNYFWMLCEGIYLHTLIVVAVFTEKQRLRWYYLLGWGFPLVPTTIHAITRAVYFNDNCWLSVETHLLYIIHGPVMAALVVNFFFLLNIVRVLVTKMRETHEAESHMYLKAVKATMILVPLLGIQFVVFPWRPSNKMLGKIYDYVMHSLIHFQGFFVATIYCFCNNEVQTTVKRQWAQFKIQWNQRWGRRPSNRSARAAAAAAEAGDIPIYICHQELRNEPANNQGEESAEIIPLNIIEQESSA
# T1 sequence (O60896 whole entry): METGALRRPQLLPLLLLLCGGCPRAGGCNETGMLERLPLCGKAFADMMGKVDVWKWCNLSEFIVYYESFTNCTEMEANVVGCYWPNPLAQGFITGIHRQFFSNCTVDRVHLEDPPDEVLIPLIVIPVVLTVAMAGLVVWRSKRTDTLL
# Calcitonin receptor = biological target: T2, Calcitonin receptor (Homo sapiens, UniProt P30988); assay: Agonist activity at human calcitonin receptor expressed in BHK570 cells assessed as increase in intracellular cAMP concentration incubated for 3 hrs in absence of albumin by CRE luciferase reporter gene assay; format: functional, cell-based
# T2 sequence (P30988 whole entry): T1 sequence (P30988 whole entry)
# [2] = Solubility in 100 mM glycylglycine buffer at pH 3.0 incubated for 18 hrs by UPLC analysis; format: physicochemical
# [3] = Solubility in 100 mM glycylglycine buffer at pH 4.0 incubated for 18 hrs by UPLC analysis; format: physicochemical
# [4] = Solubility in 100 mM bistrispropane buffer at pH 6.0 incubated for 18 hrs by UPLC analysis; format: physicochemical
# [5] = Solubility in 100 mM glycylglycine buffer at pH 5.0 incubated for 18 hrs by UPLC analysis; format: physicochemical
# [6] = Solubility in 100 mM bistrispropane buffer at pH 6.5 incubated for 18 hrs by UPLC analysis; format: physicochemical
# [7] = Solubility in 100 mM bistrispropane buffer at pH 7.0 incubated for 18 hrs by UPLC analysis; format: physicochemical
# [8] = Solubility in 100 mM bistrispropane buffer at pH 7.5 incubated for 18 hrs by UPLC analysis; format: physicochemical
# [9] = Solubility in 100 mM bistrispropane buffer at pH 8.0 incubated for 18 hrs by UPLC analysis; format: physicochemical
# [10] = biological target: T1, Amylin receptor AMY3; CALCR/RAMP3; assay: Displacement of [125I]-labeled rat amylin from human amylin receptor expressed in BHK tkts13 whole cells co-expressing RAMP3 incubated for 60 mins by scintillation proximity assay; format: cell-based
SMILES,EC50 [1],EC50 (Calcitonin receptor),solubility at 18 h [2],solubility at 18 h [3],solubility at 18 h [4],solubility at 18 h [5],solubility at 18 h [6],solubility at 18 h [7],solubility at 18 h [8],solubility at 18 h [9],IC50 [10]
CC(C)C[C@H](NC(=O)[C@H](C)NC(=O)[C@H](CC(C)C)NC(=O)[C@@H](NC(=O)[C@H](CO)NC(=O)[C@H](CC(C)C)NC(=O)[C@H](CCC(=O)O)NC(=O)[C@H](CO)NC(=O)[C@H](C)NC(=O)[C@H](CCC(=O)O)NC(=O)CCCCCCCCCCCCCCCCC(=O)O)[C@@H](C)O)C(=O)NCC(=O)N[C@@H](CCCNC(=N)N)C(=O)N[C@@H](CC(C)C)C(=O)N[C@@H](CO)C(=O)N[C@@H](C)C(=O)N[C@@H](CCC(=O)O)C(=O)N[C@@H](CC(C)C)C(=O)N[C@@H](Cc1cnc[nH]1)C(=O)N[C@@H](CCC(=O)O)C(=O)N[C@@H](CC(C)C)C(=O)N[C@@H](C)C(=O)N[C@H](C(=O)N[C@@H](CC(C)C)C(=O)N1CCC[C@H]1C(=O)N[C@@H](CCCNC(=N)N)C(=O)N[C@H](C(=O)N[C@@H](CCC(=O)O)C(=O)N[C@H](C(=O)NCC(=O)N1CCC[C@H]1C(=O)N[C@@H](CCC(=O)O)C(=O)N[C@@H](CO)C(=O)N1CCC[C@H]1C(N)=O)[C@@H](C)O)[C@@H](C)O)[C@@H](C)O ({C18 diacid}-EASELSTLALGRLSAELHELATLPRTETGPESP-NH2),0.009 nM,0.007 nM,≥ 200 µM,≥ 200 µM,≥ 200 µM,≥ 200 µM,≥ 200 µM,≥ 200 µM,≥ 200 µM,≥ 200 µM,0.275 nM
CC(C)C[C@H](NC(=O)[C@H](CCC(=O)O)NC(=O)[C@H](Cc1cnc[nH]1)NC(=O)[C@H](CC(C)C)NC(=O)[C@H](CCC(=O)O)NC(=O)[C@H](C)NC(=O)[C@H](CO)NC(=O)[C@H](CC(C)C)NC(=O)[C@H](CCCNC(=N)N)NC(=O)CNC(=O)[C@H](CC(C)C)NC(=O)[C@@H](NC(=O)[C@H](C)NC(=O)[C@@H](NC(=O)[C@H](CO)NC(=O)[C@H](CC(C)C)NC(=O)[C@H](CCC(=O)O)NC(=O)[C@H](CO)NC(=O)[C@H](C)NC(=O)[C@H](CCC(=O)O)NC(=O)CCCCCCCCCCCCCCCCC(=O)O)[C@@H](C)O)C(C)C)C(=O)N[C@@H](C)C(=O)N[C@H](C(=O)N[C@@H](CC(C)C)C(=O)N1CCC[C@H]1C(=O)N[C@@H](CCCNC(=N)N)C(=O)N[C@H](C(=O)N[C@@H](CCC(=O)O)C(=O)N1CCC[C@H]1C(=O)NCC(=O)N1CCC[C@H]1C(=O)N[C@@H](CCC(=O)O)C(=O)N[C@@H](CO)C(=O)N1CCC[C@H]1C(N)=O)[C@@H](C)O)[C@@H](C)O ({C18 diacid}-EASELSTAVLGRLSAELHELATLPRTEPGPESP-NH2),0.031 nM,0.012 nM,≥ 200 µM,≥ 200 µM,≥ 200 µM,≥ 200 µM,≥ 200 µM,≥ 200 µM,≥ 200 µM,≥ 200 µM,9 nM
CC(C)C[C@H](NC(=O)[C@H](C)NC(=O)[C@H](C)NC(=O)[C@@H](NC(=O)[C@H](CO)NC(=O)[C@H](CC(C)C)NC(=O)[C@H](CCC(=O)O)NC(=O)[C@H](CO)NC(=O)[C@H](C)NC(=O)CC[C@H](NC(=O)CCCCCCCCCCCCC(=O)O)C(=O)O)[C@@H](C)O)C(=O)NCC(=O)N[C@@H](CCCNC(=N)N)C(=O)N[C@@H](CC(C)C)C(=O)N[C@@H](CO)C(=O)N[C@@H](C)C(=O)N[C@@H](CCC(=O)O)C(=O)N[C@@H](CC(C)C)C(=O)N[C@@H](Cc1cnc[nH]1)C(=O)N[C@@H](CCC(=O)O)C(=O)N[C@@H](CC(C)C)C(=O)N[C@@H](C)C(=O)N[C@H](C(=O)N[C@@H](CC(C)C)C(=O)N1CCC[C@H]1C(=O)N[C@@H](CCCNC(=N)N)C(=O)N[C@H](C(=O)N[C@@H](CCC(=O)O)C(=O)N[C@H](C(=O)NCC(=O)N1CCC[C@H]1C(=O)N[C@@H](CCC(=O)O)C(=O)N[C@@H](CO)C(=O)N1CCC[C@H]1C(N)=O)[C@@H](C)O)[C@@H](C)O)[C@@H](C)O ({C14 diacid-γGlu}-ASELSTAALGRLSAELHELATLPRTETGPESP-NH2),0.008 nM,0.003 nM,≥ 200 µM,≥ 200 µM,≥ 200 µM,≥ 200 µM,≥ 200 µM,≥ 200 µM,≥ 200 µM,≥ 200 µM,1.14 nM
CC(C)C[C@H](NC(=O)[C@H](C)NC(=O)[C@H](C)NC(=O)[C@@H](NC(=O)[C@H](CO)NC(=O)[C@H](CC(C)C)NC(=O)[C@H](CCC(=O)O)NC(=O)[C@H](CO)NC(=O)[C@H](C)NC(=O)CC[C@H](NC(=O)CCCCCCCCCCCCCCCCCCC(=O)O)C(=O)O)[C@@H](C)O)C(=O)NCC(=O)N[C@@H](Cc1cnc[nH]1)C(=O)N[C@@H](CC(C)C)C(=O)N[C@@H](CO)C(=O)N[C@@H](C)C(=O)N[C@@H](CCC(=O)O)C(=O)N[C@@H](CC(C)C)C(=O)N[C@@H](Cc1cnc[nH]1)C(=O)N[C@@H](CCC(=O)O)C(=O)N[C@@H](CC(C)C)C(=O)N[C@@H](C)C(=O)N[C@H](C(=O)N[C@@H](CC(C)C)C(=O)N1CCC[C@H]1C(=O)N[C@@H](Cc1cnc[nH]1)C(=O)N[C@H](C(=O)N[C@@H](CCC(=O)O)C(=O)N[C@H](C(=O)NCC(=O)N[C@H](C(=O)NCC(=O)N[C@H](C(=O)N1CCC[C@H]1C(N)=O)[C@@H](C)O)[C@@H](C)O)[C@@H](C)O)[C@@H](C)O)[C@@H](C)O ({C20 diacid-γGlu}-ASELSTAALGHLSAELHELATLPHTETGTGTP-NH2),0.064 nM,0.024 nM,≥ 200 µM,≥ 200 µM,≥ 200 µM,≥ 200 µM,≥ 200 µM,≥ 200 µM,≥ 200 µM,≥ 200 µM,1.51 nM
CC(C)C[C@H](NC(=O)[C@H](C)NC(=O)[C@H](C)NC(=O)[C@@H](NC(=O)[C@H](CO)NC(=O)[C@H](Cc1cnc[nH]1)NC(=O)[C@H](CCC(=O)O)NC(=O)[C@H](CO)NC(=O)[C@H](C)NC(=O)[C@H](CCC(=O)O)NC(=O)CCCCCCCCCCCCCCCCC(=O)O)[C@@H](C)O)C(=O)NCC(=O)N[C@@H](CCCNC(=N)N)C(=O)N[C@@H](CC(C)C)C(=O)N[C@@H](CO)C(=O)N[C@@H](C)C(=O)N[C@@H](CCC(=O)O)C(=O)N[C@@H](CC(C)C)C(=O)N[C@@H](Cc1cnc[nH]1)C(=O)N[C@@H](CCC(=O)O)C(=O)N[C@@H](CC(C)C)C(=O)N[C@@H](C)C(=O)N[C@H](C(=O)N[C@@H](CC(C)C)C(=O)N1CCC[C@H]1C(=O)N[C@@H](CCCNC(=N)N)C(=O)N[C@H](C(=O)N[C@@H](CCC(=O)O)C(=O)N[C@H](C(=O)NCC(=O)N1CCC[C@H]1C(=O)N[C@@H](CCC(=O)O)C(=O)N[C@@H](CO)C(=O)N1CCC[C@H]1C(N)=O)[C@@H](C)O)[C@@H](C)O)[C@@H](C)O ({C18 diacid}-EASEHSTAALGRLSAELHELATLPRTETGPESP-NH2),0.008 nM,0.006 nM,≥ 200 µM,≥ 200 µM,≥ 200 µM,≥ 200 µM,≥ 200 µM,≥ 200 µM,≥ 200 µM,≥ 200 µM,0.832 nM
CC(C)C[C@H](NC(=O)[C@H](C)NC(=O)[C@H](C)NC(=O)[C@@H](NC(=O)[C@H](Cc1cnc[nH]1)NC(=O)[C@H](CC(C)C)NC(=O)[C@H](CCC(=O)O)NC(=O)[C@H](CO)NC(=O)[C@H](C)NC(=O)[C@H](CCC(=O)O)NC(=O)CCCCCCCCCCCCCCCCC(=O)O)[C@@H](C)O)C(=O)NCC(=O)N[C@@H](CCCNC(=N)N)C(=O)N[C@@H](CC(C)C)C(=O)N[C@@H](CO)C(=O)N[C@@H](C)C(=O)N[C@@H](CCC(=O)O)C(=O)N[C@@H](CC(C)C)C(=O)N[C@@H](Cc1cnc[nH]1)C(=O)N[C@@H](CCC(=O)O)C(=O)N[C@@H](CC(C)C)C(=O)N[C@@H](C)C(=O)N[C@H](C(=O)N[C@@H](CC(C)C)C(=O)N1CCC[C@H]1C(=O)N[C@@H](CCCNC(=N)N)C(=O)N[C@H](C(=O)N[C@@H](CCC(=O)O)C(=O)N[C@H](C(=O)NCC(=O)N1CCC[C@H]1C(=O)N[C@@H](CCC(=O)O)C(=O)N[C@@H](CO)C(=O)N1CCC[C@H]1C(N)=O)[C@@H](C)O)[C@@H](C)O)[C@@H](C)O ({C18 diacid}-EASELHTAALGRLSAELHELATLPRTETGPESP-NH2),0.015 nM,0.009 nM,≥ 200 µM,≥ 200 µM,≥ 200 µM,≥ 200 µM,≥ 200 µM,≥ 200 µM,≥ 200 µM,≥ 200 µM,1.31 nM
